The source of these data is publication PMC4321988, “Engineering of Helicobacter pylori L-Asparaginase: Characterization of Two Functionally Distinct Groups of Mutants” (PLoS ONE, 2015).

Where two headings read alike, the source gives them in different places.

In assay [1] the target is T1, HpASNase (Helicobacter pylori CCUG 17874 type II L-asparaginase) (Helicobacter pylori, UniProt O25424).
T1 construct: gene ansA; recombinant, E. coli BL21(DE3) pLysS, plasmid pDC1 (pET101 D-TOPO derivative), His-tag kept (given as N-terminal), 37 kDa band, tetramer
Briefly: glutamate dehydrogenase-coupled NADH assay, […] nm. It counts as biochemical. To be noted: 50 mM HEPES pH 7.5, 37°C.

For assay [2], the target named is Helicobacter pylori CCUG 17874 type II L-asparaginase T16D mutant (Helicobacter pylori CCUG 17874). In words: SEC; analytical gel filtration of the purified mutant; data not shown; conditions not given. (In general: In gel filtration, larger molecules generally elute earlier.)
Assay [3] has as its target Helicobacter pylori CCUG 17874 type II L-asparaginase T95E mutant (Helicobacter pylori CCUG 17874). The description is as above.

T1 sequence (O25424 whole entry): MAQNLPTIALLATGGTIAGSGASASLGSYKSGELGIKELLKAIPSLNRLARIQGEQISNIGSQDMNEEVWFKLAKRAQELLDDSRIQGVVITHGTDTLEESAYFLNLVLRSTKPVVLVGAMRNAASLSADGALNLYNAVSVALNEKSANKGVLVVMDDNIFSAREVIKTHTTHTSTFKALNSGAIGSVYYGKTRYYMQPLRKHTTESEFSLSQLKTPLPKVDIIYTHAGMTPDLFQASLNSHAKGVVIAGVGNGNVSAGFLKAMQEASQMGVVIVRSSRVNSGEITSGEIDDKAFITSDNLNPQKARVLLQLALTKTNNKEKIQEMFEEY

In the case of `NC(=O)C[C@H](N)C(=O)O` [L-asparagine], the Km in assay [1] (read-out: L-asparagine / S0.5, nH 1.0) came to 0.29 ± 0.03 mM. Take `NC(=O)CC[C@H](N)C(=O)O` [L-glutamine]: the Km in assay [1] (read-out: L-glutamine / S0.5, nH 2.0) stood at 46.4 ± 4.02 mM.

The stoichiometry N is a count of units in the complex or per binding partner. Take “Helicobacter pylori CCUG 17874 type II L-asparaginase T16D mutant (enzyme)”: the stoichiometry N in assay [2] came to 4. Regarding “Helicobacter pylori CCUG 17874 type II L-asparaginase T95E mutant (enzyme)”, the stoichiometry N in assay [3] is 4.
